Assay results taken from patent publication US6984729B1, “Oligonucleotides specific for hepatitis B virus” (priority 1995, dated 2006).
Strand notation (5' to 3'): a small letter for the sugar, then the base; units joined by * are phosphorothioate-linked, units joined directly phosphodiester-linked; [ ] holds rarer units or linkages, { } end groups; capitals alone tell only the bases. d = 2'-deoxy (DNA)

Tests used:
[1] = system: internally 32P-labelled HBV precore-core RNA (epsilon region); experiment: RNase H cleavage of HBV precore-core RNA with noncontiguous oligonucleotides targeted to the epsilon region; assay type: biochemical, hepatitis B virus; conditions: for total RNA cleavage by RNase H: 10+10 and 12+12 noncontiguous oligonucleotides versus mixtures of arms, FIGS. 5A, 6A; for double cleavage (twice cleaved product) by RNase H on both sides of the epsilon stem: FIGS. 5B, 6B
Procedure: To determine whether an oligonucleotide of the invention is capable of successfully hybridizing to its target, an RNase H assay was performed (Frank et al. (1993) Proc. Int. Conf. Nucleic Acid Med. Applns. 1:4.14(abstract)). This assay is useful when a region of at least four contiguous nucleotides of the oligonucleotide is DNA and the target is RNA. Hybridization of the DNA portion of the oligonucleotide to the RNA target is identified by cleavage at that site by RNase H.
Noncontiguous oligonucleotides targeted to the HBV epsilon region have also been prepared and tested. The epsilon region is characterized by an RNA stem-loop structure consisting primarily of double-stranded RNA with a single-stranded bulge and loop of 6 bases each (FIG. 3). […] The ability of RNase H to cleave an RNA in this manner inflicts greater damage on the RNA than normal antisense oligodeoxynucleotides, while allowing the targeting of a biologically important region that is otherwise difficult to target due to its double-stranded nature.
Based on this information, several oligodeoxynucleotide phosphorothioates were prepared to test the hypothesis that hybridization by mode B is preferred when spanning the base of an RNA stem. 20mer and 24mer noncontiguous oligonucleotides (Table 2) were prepared as well as the 10mers and 12mers corresponding to the “arms” of the noncontiguous sequences.
If a single oligodeoxynucleotide were able to bind across the base of epsilon to sequences on either side of the stem, RNase H might cleave both sites and effectively cut out the epsilon stem-loop from the RNA. […] The 12+12 noncontiguous phosphorothioates show the same ability to bind across the base of the RNA stem. […] Double cleavage of the transcript in the presence of the mixture of 12mer arms (HBV71+HBV72) was much slower (FIG. 6B).
When oligonucleotides hybridizing via mode B were lengthened to allow strand invasion of the RNA stem, disruption of the stem-loop structure occurred. Oligonucleotides HBV89 (SEQ ID NO:39), HBV90 (SEQ ID NO:40), and HBV91 (SEQ ID NO:41) bind across the base of epsilon via mode B and strand invade on either the 5 side (HBV89) or the 3′ side (HBV90 and HBV91) of the RNA stem. HBV89M is an extension of HBV64M with ten 2′-O-methyl RNA residues invading the RNA stem on the 5′-side. Addition of these strand invading nucleotides increased the cleavage efficiency from 23% to 32% at 100 nM oligonucleotide.
Uniformally ^32P-labelled RNA was prepared from 1 μg linearized plasmid using the Ambion MEGAscript In Vitro Transcription Kit (Ambion, Inc., Austin, Tex.) according to the manufacturers' instructions, using [α-^32p] CTP as the radioactive label. The RNA was treated with RNase-free DNase I (Ambion, Inc., Austin, Tex.), extracted with phenol:chloroform: isoamyl alcohol (25:24:1) and purified from nucleotides and nucleosides on a G-50 Sephadex spin column (Boehringer-Mannheim, Indianapolis, Ind., or Pharmacia, Uppsala, Sweden).
In 9 μl 1× RNase H buffer (40 mM Tris-HCl pH 7.4, 4 mM MgCl2, 1 mM DTT), 20–100 nM labelled RNA and 100 nM oligonucleotides were preincubated for 15 min at 37° C. 1 μl RNase H (1 U/μl) was added, and the reaction was incubated at 37° C. for 10 min. The reactions were quenched and analyzed as described above.
Quantitation of the cleavage products was performed using software supplied with the Phosphorimager (Molecular Dynamics, Sunnyvale, Calif., or Bio-Rad Laboratories, Hercules, Calif.). “Counts” were determined by drawing a box around the band of interest and subtracting the background determined with a box drawn nearby. Counts in a product band were compared to total counts in the lane above that band to determine % cleavage.

HBVpol RNA = experiment: In vitro translation assay (wheat germ translation system); assay type: biochemical, hepatitis B virus; conditions: FIG. 8
Procedure: The oligonucleotides of the invention can be assayed for antisense inhibitory activity with a number of different assays. For example, an in vitro translation assay can be used to test antisense activity in which an antisense oligonucleotide can inhibit synthesis of a protein product encoded by the targeted mRNA. In such an assay, oligonucleotides targeted to the polymerase gene were tested against both target and an unrelated control RNA in the wheat germ translation system. […] Results are represented graphically in FIG. 7.
This assay was also used to compare the activity of mismatched oligonucleotides to the activity of the parent oligonucleotide. Four such oligonucleotides, all derivatives of HBVpol-2 (HBVpol-A, SEQ ID NO:46; HBVpol-B, SEQ ID NO:47; HBVpol-C, SEQ ID NO:48, HBVpol-D, SEQ ID NO:49) (Table 1) were synthesized and tested in the assay.
The 5′ end of the polymerase gene (pol) open reading frame, nt 2292–2942, was amplified by the PCR from the full length HBV clone pCH3/3097 (Bartenschlager et al. (1992) Nucleic Acids Res. 20:195–202). The 5′ amplification primer AS10 (SEQ ID NO:55) encoded an EcoRI site. The 3′ amplification primer AS11 (SEQ ID NO:56) both encoded a PstI site and introduced a stop codon in the place of a leucine codon at position 2942–2944. The PCR product was digested with EcoRI and PstI (Promega, Madison, Wis.) and inserted into similarly digested plasmid vector pGEM-3z (Promega, Madison, Wis.). The resulting recombinant plasmid was recut with PstI and an oligonucleot-ide dA:dT(30) linker was introduced.
B. In vitro Transcription of RNA pHBVpol and a second plasmid pHSVProt were linearized with HindIII (Promega, Madison, Wis.), RNA was in vitro transcribed from each construct using T7 Cap-Scribe reagents (Boehringer-Mannheim, Indianapolis, Ind.) employed as per the manufacturer's instructions. The quantity and quality of the RNA's was assessed on a 2% agarose/formaldehyde gel. The control HSVProt RNA was arbitrarily diluted 10 fold to 200 ng/μl and stored in 20 μl aliquots at −80° C.
In this series of experiments only phosphodiester (PO) oligonucleotides were used. 5 μM, 2.5 μM, and 1.25 μM stocks of each of HBVpol-1, HBVpol-2, HBVpol-3, and randomer were made up and stored frozen. Reactions were set up using 100 ng HBVpol and 200 ng pHSVprot. The volume of water in the translation master mix was reduced to allow the addition of 1 μl of each dilution of each oligonucleotide to the reactions whilst maintaining the final volume at 12 μl. This corresponds to final oligonucleotide concentrations of approximately 400 nM, 200 nM, and 100 nM.

[2] = system: HBV genomes in the supernatants from HepG2.2.15 cells; experiment: Kinetic PCR HBV anti-viral assay on supernatants from HepG2.2.15 cells; assay type: cell-based, hepatitis B virus; conditions: copy number of HBV genomes in HepG2.2.15 supernatants, day 10
Procedure: In addition to Southern hybridizations, kinetic PCR was performed to assay the supernatants from the HepG2.2.15 cells. This procedure was carried out as described by Higuchi et al. (Biotechnol. (1993) 11:1026–1030). All PCRs were carried out with two sets of external controls which consisted of a dilution series of a known concentration of plasmid DNA that contained the HBV core gene amplified with the same primer set. These controls generated a standard curve that was used to calculate the copy number of HBV genomes in the supernatants from cells exposed to the various dilutions of compound.
The anti-viral assay was performed using HepG 2.2.15 cells (Sells et al. ([…]) Proc. Natl. Acad. Sci. (USA) 84:1005–1009) seeded at a density of 1×10^5 per well in 24 well plates. The cells were grown to confluence and allowed to stabilize for 2–3 days in RPMI media (supplemented with 10% fetal calf serum (FCS), 2 mM glutamine and penstrep (Life Technologies Ltd., Paisley, Scotland) prior to the addition of the oligonucleotide (defined as day 0). Six dilutions (10, 5, 1, 0.5, 0.1, and 0 μM) were set up in duplicate for each of the antisense oligonucleotides. In each assay run, the nucleoside analog, β-L-(2R,5S)-1,3 oxathiolanyl cytosine (3TC) (Glaxo, Greenford, U.K.) was included as positive control at 0.5, 0.1, 0.075, 0.05, and 0.01 and 0 μM in duplicate. Oligonucleotide was added to 1 ml of RPMI media (supplemented with 3% FCS, 2 mM glutamine and penstrep) at each of the indicated dilutions. At days 2, 4 and 7, the old media was removed and replaced with fresh media containing compound. At day 10, the supernatants were harvested, clarified by low speed centrifugation, prior to the addition of Triton X100 (Sigma, St. Louis, Mo.) and tri-n-butyl phosphate to give a final concentration of 1%. The samples were then heated to 70° C. for 20 minutes to disrupt the viral particles.
Following this treatment, the viral particles were subject to analysis by kinetic PCR. The primers RJ407 (SEQ ID NO:51) and RJ431 (SEQ ID NO:52) were used to detect a 205 bp fragment of the core gene. Kinetic PCR was performed essentially as described by Higuchi et al. (Biotechnol. (1993) 11:1026–1030). Briefly, the PCR reactions were set up under standard conditions except that ethidium bromide was included at a concentration of 4 μg/ml. […] A kinetic PCR analysis was performed by plotting the average intensity of fluorescence from each PCR sample after each annealing/extension cycle against the cycle number. The original template concentration can be calculated by utilizing a standard fluorescence curve generated by templates of known concentration.

Question: With “GACAUGAACAAGAGAUGAUUTAAGGGTCGA (RNA letters in 5' part, chemistry not given here) [HBV89M]” as the substance, how does the cleavage efficiency ([1]; 100 nM oligonucleotide, RNase H) read?
Answer: Its cleavage efficiency is 32%.

Question: Which “antisense activity of mismatched oligonucleotides compared to parent HBVpol-2” value (shortened to “antisense activity … compared to parent HBVpol-2”) (HBVpol RNA) does the source give for “GAcAGGGGCcTTTGGTGcTC (antisense dG*dA*dC*dA*dG*dG*dG*dG*dC*dC*dT*dT*dT*dG*dG*dT*dG*dC*dT*dC) [HBVpol-D, three mismatches, derivative of HBVpol-2, reference compound]” here?
Answer: The value was “abrogated antisense activity”.

Question: How did the “strand invasion of the RNA stem evidenced by RNase H cleavage within the stem near the core initiator” value [1] turn out when “AGGCAGAGGTTAAGGGTCGATGTCCATGCC (phosphorothioate, further chemistry not given here) [HBV91]” was run?
Answer: The value was “able to strand invade”.

Question: How did the “total RNA cleavage by RNase H” value [1] turn out when “TAAGGGTCGAAGGCAGAGGT (antisense dT*dA*dA*dG*dG*dG*dT*dC*dG*dA*dA*dG*dG*dC*dA*dG*dA*dG*dG*dT) [HBV68]” was run?
Answer: Its value is “activate RNase H cleavage of the transcript more effectively than the mixture of 10mer arms”.

Question: “AGAGATGATTTAAGGGTCGATGTCCATGCC (chemistry not given here) [HBV90]” was tested. Which “strand invasion of the RNA stem evidenced by RNase H cleavage within the stem near the core initiator” value [1] did it give?
Answer: The value was “able to strand invade”.

Question: “GATAGGGGCcTTTGGTGGTC (antisense dG*dA*dT*dA*dG*dG*dG*dG*dC*dC*dT*dT*dT*dG*dG*dT*dG*dG*dT*dC) [HBVpol-B, single mismatch derivative of HBVpol-2]” was tested. Which “antisense activity … compared to parent HBVpol-2” value (HBVpol RNA) did it give?
Answer: Its value is “varying degrees of reduction in activity”.

Question: For “AGGCAGAGGTTAAGGGTCGA (antisense dA*dG*dG*dC*dA*dG*dA*dG*dG*dT*dT*dA*dA*dG*dG*dG*dT*dC*dG*dA) [HBV66]”, which “total RNA cleavage by RNase H” value [1] is on record?
Answer: Its value is “activate RNase H cleavage of the transcript more effectively than the mixture of 10mer arms”.

Question: What about the “double cleavage (twice cleaved product) by RNase H on both sides of the epsilon stem” value [1] of the same substance?
Answer: Its value is “greater after 10 minutes than in the presence of HBV68”.

Question: “GATAGGGGCATTTGGTGcTC (antisense dG*dA*dT*dA*dG*dG*dG*dG*dC*dA*dT*dT*dT*dG*dG*dT*dG*dC*dT*dC) [HBVpol-C, single mismatch derivative of HBVpol-2]” was tested. Which “antisense activity … compared to parent HBVpol-2” value (HBVpol RNA) did it give?
Answer: Its value is “varying degrees of reduction in activity”.

Question: For “TCGATGTCCATGCCCCAAAG (phosphorothioate, further chemistry not given here) [HBV4]”, which IC50 [2] is on record?
Answer: The IC50 was 1200 nM.

Question: “GAGGTGAAAAAGTTGCATGG (antisense dG*dA*dG*dG*dT*dG*dA*dA*dA*dA*dA*dG*dT*dT*dG*dC*dA*dT*dG*dG) [HBV48]” was tested. Which IC50 [2] did it give?
Answer: The IC50 was 700 nM.

Question: Which results are given for “TATAAGGGTCGAAGGCAGAGGTGA (antisense dT*dA*dT*dA*dA*dG*dG*dG*dT*dC*dG*dA*dA*dG*dG*dC*dA*dG*dA*dG*dG*dT*dG*dA) [HBV79]”?
Answer: total RNA cleavage by RNase H [1]: equal; double cleavage (twice cleaved product) by RNase H on both sides of the epsilon stem [1]: efficiently activate RNase H cleavage on both sides of the stem after only 1.5 minutes

Question: For “GAcAGGGGCATTTGGTGGTC (antisense dG*dA*dC*dA*dG*dG*dG*dG*dC*dA*dT*dT*dT*dG*dG*dT*dG*dG*dT*dC) [HBVpol-A, single mismatch derivative of HBVpol-2]”, which “antisense activity … compared to parent HBVpol-2” value (HBVpol RNA) is on record?
Answer: The value was “varying degrees of reduction in activity”.
